Like-named read-outs stand apart in the source and are kept apart here.
System: Gardnerella vaginalis
Format: in vivo, New Zealand rabbits (Oryctolagus cunicolis)
Description: The efficacy of vaginal compositions in rifaximin containing tablets and ovules was evaluated in an animal model of bacterial infection persistent in the rabbit.
The vaginal infection model was induced by inoculation of Gardnerella vaginalis isolated from women affected by bacterial vaginosis. The bacterial strains were grown in agar of bovine red blood cells at 37° C. by adding a DIFCO-C supplement and were kept under controlled atmosphere 5% CO2 for 24-48 hours.
For developing the model of animal infection, New Zealand rabbits (Oryctolagus cunicolis) having a weight comprised between 2 and 3 kg were used.
Before the infection, the animals had been treated with 1 ml 10% enrofloxacin solution for reducing the endogenous Lactobacilli and facilitating the growth of pathogenic agent. The infection was induced by inoculating in the animals vagina 1 ml of sterile saline solution containing 106-7 UFC (Unit Forming Colony) of Gardnerella vaginalis by using a 22-24G Teflon catheter. The presence of G. vaginalis in the animals was verified before the inoculation and 24 and 48 hours after the inoculation.
The animals were inoculated twice and thrice at time intervals of three days. After 14 days the last inoculation all animals were treated with 1 ml 10% enrofloxacin solution to verify the model sensitivity to antibiotics. The treatment healed the infection, thus confirming that the model can be used to evaluate the efficacy of antibiotics administered via the intravaginal route.
The presence of G. vaginalis was verified by vaginal buffer 1, 2, 4, 10 and 14 days after the last inoculation, putting the vaginal buffers in agar plates of bovine red blood cells with DIFCO-C supplement and growing them at 37° C. for 48 hours. The presence of G. vaginalis was verified by means of microscope (1000×) morphological identification and with Gram staining.
Three and seven days after the end of the rifaximin treatment, the presence of Gardnerella vaginalis was evaluated by means of vaginal buffers as previously described.
The vaginal buffers were considered positive if 10 or more colonies were counted, and the presence of malodorous vaginal discharges was the clinical sign of the occurred infection.

Q: How did the “adverse event during treatment” value (rabbit, in vivo) turn out when CO[C@H]1/C=C/O[C@@]2(C)Oc3c(C)c(O)c4c(O)c(c5c(nc6cc(C)ccn65)c4c3C2=O)NC(=O)/C(C)=C\C=C\[C@H](C)[C@H](O)[C@@H](C)[C@@H](O)[C@@H](C)[C@H](OC(C)=O)[C@@H]1C [Rifaximin] was run?
A: No adverse event was observed

Q: And the “eradication of the infection (presence of Gardnerella vaginalis)” value (seven days after the end of the treatment, tablets and ovules, 1.5 to 12.5 mg)?
A: negative for 7 days after the end of the treatment

Q: And the Eradication (vaginal ovules, rifaximin dose 1.5 mg, after 3 days)?
A: 100%

Q: What about the Eradication (vaginal ovules, rifaximin dose 1.5 mg, after 7 days) of the same compound?
A: 100%

Q: And the Eradication (vaginal ovules, rifaximin dose 3 mg, after 3 days)?
A: 88%

Q: And the Eradication (vaginal ovules, rifaximin dose 3 mg, after 7 days)?
A: 100%

Q: And the Eradication (vaginal ovules, rifaximin dose 6 mg, after 3 days)?
A: 88%

Q: What about the Eradication (vaginal ovules, rifaximin dose 6 mg, after 7 days) of the same compound?
A: 100%

Q: And the Eradication (vaginal ovules, rifaximin dose 12.5 mg, after 3 days)?
A: 100%

Q: What about the Eradication (vaginal ovules, rifaximin dose 12.5 mg, after 7 days) of the same compound?
A: 100%

Q: What about the Eradication (vaginal tablets, rifaximin dose 1.5 mg, after 3 days) of the same compound?
A: 88%

Q: What about the Eradication (vaginal tablets, rifaximin dose 1.5 mg, after 7 days) of the same compound?
A: 100%

Q: What about the Eradication (vaginal tablets, rifaximin dose 3 mg, after 3 days) of the same compound?
A: 63%

Q: What about the Eradication (vaginal tablets, rifaximin dose 3 mg, after 7 days) of the same compound?
A: 100%

Q: And the Eradication (vaginal tablets, rifaximin dose 6 mg, after 3 days)?
A: 88%

Q: And the Eradication (vaginal tablets, rifaximin dose 6 mg, after 7 days)?
A: 100%

Q: What about the Eradication (vaginal tablets, rifaximin dose 12.5 mg, after 3 days) of the same compound?
A: 100%

Q: What about the Eradication (vaginal tablets, rifaximin dose 12.5 mg, after 7 days) of the same compound?
A: 100%
